What was measured:
THP-1 cells = experiment: MTS cell viability, THP-1; assay type: cell-based; conditions: Homo sapiens, 48 hrs, unit inferred
Description: (§1) In order to identify chemical compounds that may target TET1 signaling, the drug-sensitivity/gene expression database of a total of 20,602 chemical compounds in the NCI-60 collection of cancer cell samples was searched.
(§2) All cell lines were authenticated through STR profiling yearly.
(§3) These experiments were conducted as described previously (Jiang, X., et al., Blockade of miR-150 Maturation by MLL-Fusion/MYC/LIN-28 Is Required for MLL-Associated Leukemia, Cancer Cell 22:524-35 (2012); Li, Z., et al., miR-196b directly targets both HOXA9/MEIS1 oncogenes and FAS tumour suppressor in MLL-rearranged leukaemia, Nat Commun 2:688 (2012)) with ApoLive-Glo Multiplex Assay Kit, or CellTiter 96 AQueous Non-Radioactive Cell Proliferation Assay Kit (Promega, Madison, Wis.).

[1] = system: MONOMAC-6, THP-1, KOCL-48 and KASUMI-1 cells; experiment: MTS cell viability, four TET1-high AML cell lines together; assay type: cell-based
Description: as §1, §2, §3

[2] = system: STAT3 and STAT5 phosphorylation; experiment: Western blotting of STAT phosphorylation in MONOMAC-6 cells; assay type: cell-based; conditions: 250 nM, 0 min to 24 hrs
Description: FIG. 10. […] Relative cell viabilities are shown. […] Levels of TET1 transcripts are shown. […] (e-h) MONOMAC-6, THP-1 and NB4 cells were transfected with control siRNA (siNC), siSTAT3, or siSTAT5. Expression levels of STAT5 (e), STAT3 (f), TET2 (g) and TET3 (h) were detected by qPCR 48 hrs post-transfection. (i) THP-1 cells were transfected with control siRNA (siNC), siTET1, siJAK1 or siSTAT5. Gene expression levels were detected by qPCR 48 hrs post-transfection. […] (j) ChIP-qPCR assay was carried out 48 hrs after drug treatment. Enrichment of TET1 or IgG at the JAK1 promoter region and other regions are shown. […] Protein levels were detected thereafter. […] Expression levels of TET1, HIF2 a, IL2RA and FRA2 (1) were detected through qPCR. The enrichment of STAT5 on the promoters of TET1 (Site 2; CpG), HIF2a, IL2RA and FRA2 (m) was determined through ChIP-qPCR assays. *, P<0.05; **, P<0.01, two-tailed t-test. Error bar indicates SD of triplicate experiments.
Cells were washed twice with ice-cold phosphate-buffered saline (PBS) and ruptured with RIPA buffer (Pierce, Rockford, Ill.) containing 5 mM EDTA, PMSF, cocktail inhibitor, and phosphatase inhibitor cocktail. Cell extracts were microcentrifuged for 20 min at 10,000 g and supernatants were collected. Cell lysates were resolved by SDS-PAGE and transferred onto PVDF membranes. […]

[3] = system: normal hematopoietic stem/progenitor cells (c-Kit+ BM cells); experiment: MTS and apoptosis assays in normal HSPCs; assay type: cell-based, mice; conditions: 50 nM; 3 days
Description: FIG. 14. […] BM cells of leukemic mice with MLL-AF9 fusion (MA9-AML) or FLT3-ITD/NPM1^mut, and c-Kit^+ HSPCs from a pool of 6 healthy donor mice were cultured in liquid medium. […] MTS (a), apoptosis assays (b) and qPCR (c) were conducted 3 days after cell seeding or drug treatments. Error bar indicates SD of triplicate experiments.
as §3

[4] = biological target: STAT3 and the TET1 CpG island (Homo sapiens, UniProt P40763); experiment: Electrophoretic mobility shift assay (EMSA); assay type: biochemical
Chain of STAT3 and the TET1 CpG island (P40763 whole entry, species assumed): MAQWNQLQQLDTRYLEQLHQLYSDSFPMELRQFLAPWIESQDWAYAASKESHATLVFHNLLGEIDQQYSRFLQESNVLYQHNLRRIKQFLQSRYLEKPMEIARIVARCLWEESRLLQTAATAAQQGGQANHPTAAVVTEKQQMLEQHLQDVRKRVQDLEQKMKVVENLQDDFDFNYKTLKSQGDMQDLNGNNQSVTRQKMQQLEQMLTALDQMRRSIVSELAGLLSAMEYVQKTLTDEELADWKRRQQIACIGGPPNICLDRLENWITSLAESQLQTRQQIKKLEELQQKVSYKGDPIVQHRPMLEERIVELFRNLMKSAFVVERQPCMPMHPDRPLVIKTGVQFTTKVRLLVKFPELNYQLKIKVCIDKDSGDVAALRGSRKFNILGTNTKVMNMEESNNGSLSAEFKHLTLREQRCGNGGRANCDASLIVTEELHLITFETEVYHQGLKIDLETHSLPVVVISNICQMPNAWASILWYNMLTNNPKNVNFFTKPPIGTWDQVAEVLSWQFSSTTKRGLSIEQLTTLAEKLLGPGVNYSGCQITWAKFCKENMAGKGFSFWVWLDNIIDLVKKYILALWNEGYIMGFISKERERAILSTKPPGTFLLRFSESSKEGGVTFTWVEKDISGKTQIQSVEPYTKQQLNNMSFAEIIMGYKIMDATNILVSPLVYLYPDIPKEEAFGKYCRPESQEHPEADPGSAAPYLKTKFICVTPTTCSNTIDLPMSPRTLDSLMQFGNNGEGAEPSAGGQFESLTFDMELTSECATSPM
Description: EMSA was conducted with EMSA Assay Kit (Signosis, Santa Clara, Calif.) according to the manufacturer's protocol with minor modifications. Briefly, purified STAT3 protein was incubated with Biotin-labeled TET1-CPG probe (hot probe) and/or cold probe, and then protein/DNA complexes were separated on a non-denaturing polyacrylamide gel. Bands were detected using Streptavidin-HRP conjugate and a chemiluminescent substrate. The sequences of the TET1-CPG probe are: Forward: 5′ Biotin-[…]-3′ (SEQ ID NO: 11); Reverse: 5′ Biotin-[…]-3′ (SEQ ID NO: 12).

KOCL-48 cells = experiment: MTS cell viability, KOCL-48; assay type: cell-based; conditions: 48 hrs, unit inferred
Description: as §1, §2, §3

in vivo = experiment: in vivo; design: species or system C57BL/6 mice; conditions: C57BL/6, mouse
Description: FIG. 17. […] Error bar indicates SD of triplicate experiments.

[5] = system: TET1-high AML (including MONOMAC-6, THP-1, and KASUMI-1) cells; experiment: MTS viability of AML cell lines versus JAK/STAT inhibitors; assay type: cell-based; conditions: MTS 48 hrs; up to 500 nM
Description: FIG. 4. […] (a) Structures of NSC-370284 and UC-514321. […] Cells were treated with drugs at indicated doses. Cell viability was detected by MTS 48 hrs post-treatment. Error bar indicates SD of triplicate experiments. […] Secondary BMT recipient mice were transplanted with primary leukemic BM cells with MLL-AF9 (f) or AML-ETO9a (g). […] Kaplan-Meier curves are shown. The P values were determined by log-rank test. […] Secondary BMT recipient mice were transplanted with primary leukemic BM cells with MLL-AF10 or FLT3-ITD/NPM1^mut. […] Kaplan-Meier curves are shown. The P values were determined by log-rank test. (j) Wright-Giemsa staining of mouse PB and BM, or H&E staining of mouse spleen and liver of MLL-AF9 AML secondary BMT recipients with or without drug treatment.
as §3

SMILES	IC50 (THP-1 cells) [nM]	inhibition of cell viability of all four TET1-high AML cell lines ([1]; 0, 50, 200, 500 nM, MTS 48 hours, among top 20 candidates)	cell viability at low dose, short term ([1]; 25 nM, 24 hours, MONOMAC-6, THP-1 and KOCL-48 cells)	IC50 ([1]; average over the cell lines, unit inferred) [nM]	levels of STAT3 and STAT5 phosphorylation [2]	toxicity on normal HSPCs (viability, apoptosis) [3]	association between STAT3 and the TET1 CpG island [4]	IC50 (KOCL-48 cells) [nM]	half-life (in vivo) [h]	AUC(0-inf) (in vivo; ip, 15 mg/kg) [ng·h/mL]	Clearance (in vivo; ip, 15 mg/kg) [mL/min/kg]	MRT (in vivo; ip, 15 mg/kg) [h]	Volume of Distribution (in vivo; ip, 15 mg/kg) [L/kg]	half-life (in vivo; ip, 15 mg/kg) [h]	effect in repressing viability of TET1-high AML cells compared with NSC-370284 and other JAK/STAT inhibitors [5]
COc1cc(C(c2cc3c(cc2O)OCO3)N2CCCC2)cc(OC)c1OC (stereo not shown) [NSC-370284, 6-(1-Pyrrolidinyl(3,4,5-trimethoxyphenyl)methyl)-1,3-benzodioxol-5-ol]	0.356	most significant effects in inhibiting cell viability	very minor decrease	9.75	no significant alterations	no obvious toxicity	almost be completely blocked	38.2	–	–	–	–	–	–	–
CC(C)(C)c1cc(C(c2cc3c(cc2O)OCO3)N2CCOCC2)cc(C(C)(C)C)c1O (stereo not shown) [UC-514321, 6-{[4-Hydroxy-3,5-bis(2-methyl-2-propanyl)phenyl](4-morpholinyl)methyl}-1,3-benzodioxol-5-ol]	–	–	–	–	–	no obvious toxicity	–	–	11	29400 ± 2750	22.7 ± 1.3	16.1 ± 1.79	21.66 ± 1.74	11 ± 2.51	enhanced effect

From patent publication US11311513B2, “Methods, agents, and compositions for the treatment of acute myeloid leukemia” (UNIVERSITY OF CINCINNATI, priority 2017, dated 2022)
